# Data taken from EP4803511A1, “SMALL MOLECULE COMPOUND HAVING SULFONIC ACID OR SULFINIC ACID LACTONE STRUCTURE, COMPOSITION AND USE THEREOF” (Hangzhou Phecdamed Co., Ltd., priority 2023, dated 2025).
# Key:
# TNF-α = TNF-α gene expression in HaCaT after UVB radiation (q-PCR); format: cell-based, human; details: UVB 80 mJ/cm^2, 24 hrs, dose-dependent
# Text: (§1) In the following Test Examples 6-1 and 6-2, using immortalized keratinocytes (HaCaT) and UVB to establish a model, after the compound to be test was applied to HaCaT, the expression levels of TNF-α, IL-8, IL-1β and EP2 were detected; using immortalized keratinocytes (HaCaT) and capsaicin to establish a model, after the compound to be test was applied to HaCaT, the expression level of TRPV1 was detected, so as to evaluate the soothing effect of the test substance from multiple dimensions.
# (§2) • 1) Cell inoculation: HaCaT cells were inoculated into a 6-well plate at 6×10^5/well, cultured in an incubator (37°C, 5% CO2) for 12 hrs, and a normal control group (0 mJ/cm^2 + vehicle control), a model control group (80 mJ/cm^2 + vehicle control), a low concentration group (80 mJ/cm^2 + low concentration compound), a medium concentration group (80 mJ/cm^2 + medium concentration compound), and a high concentration group (80 mJ/cm^2 + high concentration compounds) were respectively provided. • 2) UVB modeling: The HaCaT cells were washed 3 times with D'Hanks before UVB radiation, 1 mL of D'Hanks was added into the wells, to make the cells to be immersed, and the control group was coated with tinfoil and placed in the dark. […]
# IL-1β = IL-1β gene expression in HaCaT after UVB radiation (q-PCR); format: cell-based, human; details: UVB 80 mJ/cm^2, 24 hrs, dose-dependent
# Text: as §1, §2
# [1] = tested on: wild-type AB strain zebrafish; test: Zebrafish tail amputation model, inflammatory repair efficacy (inflammatory cells at the broken tail); format: in vivo; details: I-8 at 1, 3, and 9 µg/mL, 48 hrs; compared with the modeling group, statistical significance
# Method: Experimental animal: Healthy wild-type AB strain zebrafish at 3 dpf (days post fertilization)
# Evaluation of wound repair efficacy: Healthy AB strain zebrafish were taken as experimental animal, and randomly divided into blank control group, modeling group, positive control group, and sample group. The zebrafish in the blank control group were treated with culture water; the zebrafish in the modeling group were treated with culture water after cutting the caudal fin; the zebrafish in the positive control group and sample group were treated with 600 µg/mL hyaluronic acid and I-8 with different concentrations (1, 3, 9 µg/mL) respectively after cutting the caudal fin. The larva fish in above groups were placed in a constant temperature incubator at 28.5 °C and kept in continuous darkness for 48 hrs, with the culture medium changed once every 24 hrs. […] The data were statistically analyzed using GraphPad software.
# Evaluation of inflammatory repair efficacy: As described above, the larva fish in each group were placed in a constant temperature incubator at 28.5 °C and kept in continuous darkness for 48 hrs. Inflammatory cells in the fish body were labeled with neutral red, and the number of inflammatory cells at the broken tail was counted. The data were statistically analyzed using GraphPad software.
# Mn-sod = test: Zebrafish oxidative aging model (menadione), Mn-sod gene expression by RT-qPCR; format: in vivo; details: I-8 at 2.5, 7.5, and 22.2 µg/mL, 22 hrs, 4 µM menadione; compared to the modeling group, statistical significance
# Method: Experimental animal: Healthy wild-type AB strain zebrafish at 48 hpf (hours post-fertilization)
# Healthy AB strain zebrafish were taken as experimental animal. A zebrafish oxidative aging model was constructed using chemical mutagenesis with 4 µM menadione as the modeling drug. Fucoxanthin was used as a positive control compound. After treating the zebrafish oxidative aging model with different concentrations of I-8 for 22 hrs, changes in the reactive oxygen species (ROS) content, β-galactosidase activity, and the expression of three antioxidant and anti-aging related genes (Cu/Zn-sod, Mn-sod, and ampk) were respectively detected and statistically analyzed.
# During the experiment, the modeling drug, positive compound, and I-8 were dispersed together in the culture water of zebrafish. […] Cell ROX™ Deep Red fluorescent probes and β-galactosidase staining kits were used to specifically label ROS and β-galactosidase in the fish, respectively, and the staining intensity was quantified using Image-Pro Plus software. After extracting RNA from the whole fish, the expression changes of three genes (Cu/Zn-sod, Mn-sod, and ampk) in the fish were detected at the mRNA level using Quantitative Real-time PCR (RT-qPCR). The data were statistically analyzed using GraphPad software.
# TRPV1 = TRPV1 gene expression in HaCaT after capsaicin stimulation (q-PCR); format: cell-based, human; details: 15 µM capsaicin, dose-dependent
# Text: as §1
# • 1) Cell inoculation: HaCaT cells were inoculated into a 6-well plate at 6 × 10^5/well, cultured in an incubator (37 °C, 5% CO2) for 12 hrs, and a normal control group (0 µM capsaicin + vehicle control), a model control group […] concentration group (15 µM capsaicin + low concentration compound), a medium concentration group (15 µM capsaicin + medium concentration compound), and a high concentration group (15 µM capsaicin + high concentration compound) were respectively provided. • 2) Induction and administration: The culture solution in the 6-well plate was discarded and the administration operation was carried out. The culture solution containing the test substance and the capsaicin stock solution was added according to the above drug group, and 1 mL was added to each well. […]
compound,measurement,setting,value
O=S1(=O)Oc2cc(O)ccc2-c2ccc(O)cc21 [Compound I-8],expression level of TNF-α,TNF-α,downregulating
same,expression level of IL-1β,IL-1β,downregulating
same,number of inflammatory cells at the wound,[1],decreased
same,expression of Mn-sod gene,Mn-sod,upregulated
same,expression level of TRPV1,TRPV1,downregulating
